The record followed here is patent EP4806435A1, “DIHYDROCHROMENE-DERIVATIVE-CONTAINING THERAPEUTIC AGENT FOR CANCER” (Sumitomo Pharma Co., Ltd., priority 2023, dated 2025).

In one data set the test system is U-87 cells. In words: Cytotoxicity assay of metabolites under sphere culture conditions (ATP). The data set is classed as cell-based. As to conditions: Homo sapiens, U-87 MG, 168 h, 7 days in sphere medium, read-out: IC50 (cytotoxicity, cell viability by ATP). As for the experimental part: U-87 cells were cultured for 7 days in sphere medium in the presence of metabolites M2, M4, and M5, respectively. After culture, cellular ATP levels were quantified as an indicator of cell viability, and cell viability was calculated in the same manner as in Example 12 to compare cytotoxicity.

The subject of data set [1] is U-87 cells (IDH1 wild-type). In words: Cytotoxicity, sphere culture with LDL, combination with ezetimibe (ATP). As to conditions: ezetimibe at 3.3, 10, or 30 µM; 7 days; LDL 5 µg/mL. The data set is classed as cell-based, human. As for the experimental part: U-87 cells were cultured for 7 days in sphere medium supplemented with LDL at a concentration of 5 µg/mL, with either ezetimibe (a cholesterol absorption inhibitor) added at 3.3, 10, or 30 µM, Compound 1 added at 1 µM, or a combination of both agents. Cell viability was calculated in the same manner as in Example 12, and the cytotoxic effects of each treatment were compared between single-agent and combination conditions.

In another data set the test system is mouse. Nature of the data set: 4-week mouse toxicity study (GLP). The data set is classed as in vivo. As for the experimental part: (§1) The initial starting dose of 20 mg/day (expressed as the present compound) was determined in accordance with the ICH S9 guideline of International Council for Harmonisation of Technical Requirements for Pharmaceuticals for Human Use (ICH). Based on a 4-week mouse toxicity study conducted in compliance with Good Laboratory Practice (GLP), the dose causing severe toxicity in 10% of the test animals (STD10) was determined to be 50 mg/kg. Applying a safety factor of 10 and interspecies scaling, the starting dose for this first-in-human (FIH) study was calculated to be 0.4 mg/kg, corresponding to a fixed dose of 24 mg for a 60-kg human. In a 4-week non-human primate toxicity study conducted in compliance with Good Laboratory Practice (GLP), the highest non-severely toxic dose (HNSTD) was determined to be 7.5 mg/kg. Applying a safety factor of 6 and interspecies scaling, the starting dose in humans was estimated to be 0.4 mg/kg, corresponding to a fixed dose of 24 mg. The final recommended starting dose for the first-in-human (FIH) study was rounded to 20 mg/day.

The test system of a further data set is non-human primate. In words: 4-week non-human primate toxicity study (GLP). The data set is classed as in vivo. As for the experimental part: as §1
Another data set concerns U-87 GBM xenografts. Nature of the data set: Tumor shrinkage in mice bearing U-87 GBM xenografts. The data set is classed as in vivo.

By IC50 is commonly meant the midpoint of a concentration-inhibition curve. Regarding `CC1(C)Oc2cc(Cl)ccc2[C@@H]2OCC3(CCN(CCNC(=O)CNC=O)CC3)C[C@H]21` [Compound M2, N-2-[(4'aR,10'bR)-8'-chloro-5',5'-dimethyl-4'a,10'b-dihydro-2'H,4'H,5'H-spiro[piperidine-4,3'-pyrano[3,2-c][1]benzopyran]-1-yl]ethyl-N^2-formylglycinamide], in the data set with U-87 cells, the IC50 came to 3600 nM.

With `CC1(C)Oc2cc(Cl)ccc2[C@@H]2OCC3(CCNCC3)C[C@H]21` [Compound M4], in the data set with U-87 cells, the half-maximal inhibitory concentration (IC50) was 1600 nM. Take `CC1(C)Oc2cc(Cl)ccc2[C@@H]2OCC3(CCN(CCO)CC3)C[C@H]21` [Compound M5, 2-[(4'aR,10'bR)-8'-chloro-5',5'-dimethyl-4'a,10'b-dihydro-2'H,4'H,5'H-spiro[piperidine-4,3'-pyrano[3,2-c][1]benzopyran]-1-yl]ethan-1-ol]: the IC50 in the data set on U-87 cells was determined as 2100 nM. As to `O=C1[C@H](CC[C@H](O)c2ccc(F)cc2)[C@@H](c2ccc(O)cc2)N1c1ccc(F)cc1` [ezetimibe, reference compound], the “cytotoxicity, single agent” value in data set [1] was “low cytotoxicity”. As for `CC1(C)Oc2cc(Cl)ccc2[C@@H]2OCC3(CCN(CCn4ccnc4)CC3)C[C@H]21` [the present compound, (4'aR,10'bR)-8'-chloro-1-[2-(1H-imidazol-1-yl)ethyl]-5',5'-dimethyl-4'a,10'b-dihydro-2'H,4'H,5'H-spiro[piperidine-4,3'-pyrano[3,2-c][1]benzopyran]], in the data set on mouse, the “dose causing severe toxicity in 10% of the test animals (STD10)” value is listed as 50 mg/kg. In addition, in the data set on non-human primate, the “highest non-severely toxic dose (HNSTD)” value is listed as 7.5 mg/kg. Besides, the “minimum pharmacologically active dose in humans (human equivalent dose, HED)” value in the data set on U-87 GBM xenografts (HED of 3 mg/kg in mice bearing U-87 GBM xenografts) is recorded as 15 mg. Besides, the “dose at which a consistent tumor shrinkage effect was observed” value with U-87 GBM xenografts (mice bearing U-87 GBM xenografts) is 3 mg/kg.
